Measurements published in PMC12348844, “Anti-Trypanosoma cruzi Potential of New Pyrazole-Imidazoline Derivatives” (Molecules, 2025).
Like-named read-outs stand apart in the source and are kept apart here.

Experiments:
[1] = system: T. cruzi cysteine protease; test: Cysteine protease activity in trypomastigote protein extract (Z-Phe-Arg-AMC); assay type: biochemical, Trypanosoma cruzi; settings: 90 min, 37 °C, 33.3, 100 and 300 µM tested
Experimental: Total proteins from T. cruzi Dm28c-Luc were extracted using a lysis buffer [100 mM Tris-HCl pH 8.0, 150 mM NaCl, 10% glycerol, 0.5% Triton X-100]. The protein concentration was quantified using the Bradford assay, with bovine serum albumin (BSA) used to establish the standard curve. For the assessment of cysteine protease activity, 5 μg of the protein extract was incubated in an acetate buffer [10 mM sodium acetate, pH 5.0], supplemented with 1 mM dithiothreitol (DTT) in a final volume of 100 μL. The reaction used a fluorogenic peptide substrate, N-benzoyloxycarbonyl-L-phenylalanyl-L-arginine 7-amino-4-methylcoumarin (Z-FR-AMC), at a concentration of 60 μM. Incubation was conducted at 37 °C for 90 min, with relative fluorescence changes measured using a SpectraMax M2e spectrophotometer (Molecular Devices, Sunnyvale, CA, USA). Inhibition assays were performed using three concentrations (33.3, 100, and 300 µM) of the promising candidate and trans-epoxysuccinyl-L-leucylamido(4-guanidino)butane (E-64), each analyzed separately. A control was included using a low DMSO concentration (≤1%). Enzymatic activity was expressed in µmol/min/mg of protein, with residual activity presented as a percentage.

[2] = system: T. cruzi Dm28c-Luc trypomastigotes; test: Anti-T. cruzi in vitro assay, trypomastigotes (luminescence); assay type: cell-based; settings: Trypanosoma cruzi, 24 h, mean ± SD
Experimental: (§1) The genetically modified Trypanosoma cruzi, clone Dm28c (TcI), expressing luciferase (Dm28c-Luc), was kindly provided by Dr. Cristina Henriques from Oswaldo Cruz Institute—Fiocruz. The parasites were maintained using Vero cell cultures in RPMI 1640 medium enriched with 10% FBS. At 4 days post-infection (dpi), the trypomastigotes released into the culture supernatant were harvested, subjected to centrifugation at 800× g for 20 min at 4 °C, and quantified with a Neubauer chamber. The isolated trypomastigotes were subsequently used for phenotypic screening, drug efficacy assessments employing a 3D cardiac model, washout experiments to evaluate reversibility, drug combination studies, and enzymatic assays.
Drug susceptibility assays were performed on T. cruzi Dm28c-Luc, a genetically engineered parasite expressing luciferase. The drug screening used both trypomastigotes and intracellular amastigotes. Trypomastigotes (1 × 10^6 parasites/well) were added to white 96-well plates with clear bottoms. […] The luminescence was measured using a Glomax Multi-Detection plate reader (Promega Corporation, Madison, WI, USA).

[3] = system: T. cruzi Dm28c-Luc intracellular amastigotes; test: Anti-T. cruzi in vitro assay, intracellular amastigotes in Vero cells (luminescence); assay type: cell-based, Trypanosoma cruzi; settings: for SI (selectivity index = CC50/IC50): CC50 Vero cells / IC50 intracellular amastigotes
Experimental: as §1
To evaluate the effect of pyrazole-imidazoline derivatives against intracellular amastigotes, Vero cells (1.5 × 10^4 cells/well) were cultured in a white 96-well plate with a clear bottom and subsequently infected with T. cruzi Dm28c-Luc at a 10:1 parasite-to-host cell ratio for 24 h. […] Parasite viability was measured by luminescence following the addition of luciferin (300 µg/mL). Background measurements (non-infected cultures incubated with luciferin, as well as luciferin-only controls) were performed to ensure the signal specifically originates from viable parasites. The IC50 and IC90 values, denoting the concentrations that achieve 50% and 90% reductions in viable parasites, respectively, were calculated using GraphPad Prism 8.2.1 software. Additionally, the selectivity index (SI) was calculated as the cytotoxic concentration (CC50) ratio in mammalian cells to the IC50 against T. cruzi, providing insight into the therapeutic window. Potency against intracellular amastigotes was evaluated using the formula 6—Log10 (IC50).

[4] = Cytotoxicity assay, Vero cells (CellTiter-Glo); assay type: cell-based; settings: African green monkey, mean ± SD
Experimental: Vero cells, obtained from the Rio de Janeiro Cell Bank (BCRT code 0245) and maintained through weekly subculturing with a dissociation solution containing 0.25% trypsin-EDTA, initiated once the monolayer reached an 80–100% confluence. Following harvesting, the cells were washed and resuspended in RPMI 1640 medium enriched with 10% fetal bovine serum (FBS). Cultures were maintained at 37 °C in a 5% CO2-humidified incubator. These cultures were used for drug screening assays and for producing culture-derived trypomastigotes of T. cruzi.
Cytotoxicity assays were performed using Vero cells, which were seeded at a density of 1.5 × 10^4 cells per well in white 96-well plates with clear bottoms. Following a 24 h adhesion period, the cultures were incubated at 37 °C in a 5% CO2 atmosphere. […] After 72 h of incubation, cell viability was assessed by adding CellTiter-Glo reagent (Promega Corporation, Madison, WI, USA), which induces cell lysis and reacts with the released ATP to produce luminescence. The resulting luminescence was measured using a Glomax Multi-Detection plate reader (Promega Corporation, Madison, WI, USA). The half-maximal inhibitory concentration (CC50) for cell viability was then calculated using GraphPad Prism software version 8.2.1.

[5] = Trypanosoma cruzi, Vero, 72 h, Dm28c-Luc in Vero cells, mean ± SD, read-out: Intracellular Amastigotes IC50
[6] = Trypanosoma cruzi, Vero, intracellular amastigotes, 6 − Log10(IC50), read-out: pIC50 (potency) (converted)
[7] = Trypanosoma cruzi, 72 h, Dm28c-Luc in Vero cells, mean ± SD

SMILES | inhibition of cysteine protease activity [1] | IC50 [2] | IC90 [2] | SI (selectivity index = CC50/IC50) [3] | IC50 [3, 5] | IC50 [3, 6] | IC90 [3, 7] | CC50 at 72 h [4] | IC50 ([3]; 72 h, Dm28c-Luc in Vero cells, mean ± SD, read-out: Intracellular Amastigotes IC50)
CC(C)C[C@H](NC(=O)[C@H]1O[C@@H]1C(=O)O)C(=O)NCCCCN=C(N)N (relative stereo) [E-64, trans-epoxysuccinyl-L-leucylamido(4-guanidino)butane, reference compound] | 92.81% | – | – | – | – | – | – | – | –
Nc1c(C2=NCCN2)cnn1-c1ccc(Cl)cc1Cl [1a, 5-amino-1-(2,4-dichlorophenyl)-4-(4,5-dihydro-1H-imidazol-2-yl)-1H-pyrazole] | – | > 100 µM | > 100 µM | >12.2 | 40.8 ± 3 µM | 75.9 µM | > 100 µM | > 500 µM | –
Nc1c(C2=NCCN2)cnn1-c1cccc(F)c1 [1b, 5-amino-1-(3-fluorophenyl)-4-(4,5-dihydro-1H-imidazol-2-yl)-1H-pyrazole] | – | > 100 µM | > 100 µM | – | > 100 µM | > 100 µM | > 100 µM | > 500 µM | –
Cc1ccc(-n2ncc(C3=NCCN3)c2N)cc1 [1c, 5-amino-1-(4-methylphenyl)-4-(4,5-dihydro-1H-imidazol-2-yl)-1H-pyrazole] | – | > 100 µM | > 100 µM | – | > 100 µM | > 100 µM | > 100 µM | > 500 µM | –
Cc1ccc(-n2cc(C3=NCCN3)cn2)cc1 [1d, 1-(4-methylphenyl)-4-(4,5-dihydro-1H-imidazol-2-yl)-1H-pyrazole] | – | > 100 µM | > 100 µM | >14.7 | 33.9 ± 0.8 µM | 39.8 µM | > 100 µM | > 500 µM | –
Cc1ccc(-n2ncc(C3=NCCN3)c2N)cc1Cl [1e, 5-amino-1-(3-chloro-4-methylphenyl)-4-(4,5-dihydro-1H-imidazol-2-yl)-1H-pyrazole] | – | 76.5 ± 10.3 µM | > 100 µM | >7.2 | 68.9 ± 8.1 µM | 79.4 µM | 96.6 ± 0.2 µM | > 500 µM | –
Cc1cc(Cl)ccc1-n1ncc(C2=NCCN2)c1N [1f, 5-amino-1-(4-chloro-2-methylphenyl)-4-(4,5-dihydro-1H-imidazol-2-yl)-1H-pyrazole] | – | > 100 µM | > 100 µM | >6.5 | 76.1 ± 1.2 µM | 79.4 µM | > 100 µM | > 500 µM | –
Cc1cccc(-n2ncc(C3=NCCN3)c2N)c1 [1g, 5-amino-1-(3-methylphenyl)-4-(4,5-dihydro-1H-imidazol-2-yl)-1H-pyrazole] | – | > 100 µM | > 100 µM | >6.3 | 78.9 ± 2.2 µM | 79.4 µM | > 100 µM | > 500 µM | –
Cc1cccc(-n2cc(C3=NCCN3)cn2)c1 [1h, 1-(3-methylphenyl)-4-(4,5-dihydro-1H-imidazol-2-yl)-1H-pyrazole] | – | > 100 µM | > 100 µM | >19.1 | 26.1 ± 3.4 µM | 25.1 µM | 89.7 ± 7.4 µM | > 500 µM | 26.2 ± 3.4 µM
Nc1c(C2=NCCN2)cnn1-c1cccc(C(F)(F)F)c1 [1i, 5-amino-1-(3-trifluoromethylphenyl)-4-(4,5-dihydro-1H-imidazol-2-yl)-1H-pyrazole] | – | > 100 µM | > 100 µM | >9.6 | 51.9 ± 3.6 µM | 63.1 µM | > 100 µM | > 500 µM | –
Nc1c(C2=NCCN2)cnn1-c1ccc(C(F)(F)F)cc1 [1j, 5-amino-1-(4-trifluoromethylphenyl)-4-(4,5-dihydro-1H-imidazol-2-yl)-1H-pyrazole] | – | > 100 µM | > 100 µM | >5.6 | 88.1 ± 0.2 µM | 100 µM | > 100 µM | > 500 µM | –
Nc1c(C2=NCCN2)cnn1-c1cc(C(F)(F)F)cc(C(F)(F)F)c1 [1l, 5-amino-1-((3,5-ditrifluoromethyl)phenyl)-4-(4,5-dihydro-1H-imidazol-2-yl)-1H-pyrazole] | – | > 100 µM | > 100 µM | 16.7 | 27.7 ± 2 µM | 31.6 µM | 80.1 ± 11.4 µM | 464 ± 15.2 µM | –
FC(F)(F)c1cc(-n2cc(C3=NCCN3)cn2)cc(C(F)(F)F)c1 [1m, 1-((3,5-ditrifluoromethyl)phenyl)-4-(4,5-dihydro-1H-imidazol-2-yl)-1H-pyrazole] | – | > 100 µM | > 100 µM | 3.5 | 32.4 ± 5.9 µM | 31.6 µM | 80.7 ± 0.4 µM | 114 ± 11.9 µM | –
